Question: With `CC1SC(=O)NN=C1c1ccc2c(c1)C(C)(C)C(=O)N2C(=O)Oc1ccccc1` (stereo unspecified) as the compound, how does the melting point read?
Answer: Its melting point is 248 °C.

Question: Which melting point does the source give for `CS(=O)(=O)c1ccc(-n2nc(C(F)(F)F)cc2-c2ccc(-c3ncco3)cc2)cc1F` here?
Answer: Its melting point is 140 to 142 °C.

Question: For `Oc1cnc2cccc(Cl)c2n1`, which melting point is on record?
Answer: The melting point was greater than 250 °C.

Question: With `CN1CCN(C2=Cc3ccccc3Oc3ccccc3C2)CC1` as the compound, how does the melting point read?
Answer: Its melting point is 127 °C.

Question: For `CON=C(c1ccc(OC(C)(C)C(=O)O)c(C)c1)c1cccs1`, which melting point is on record?
Answer: The melting point was 108 °C.

Question: For `O=C(NN1CCCCCC1)c1nc(-c2ccc(Cl)cc2Cl)c(-c2ccc(Cl)cc2)s1`, which melting point is on record?
Answer: Its melting point is 185 to 186 °C.

Question: Which melting point does the source give for `Nc1ccccc1C(=O)c1ccc(Cl)cc1` here?
Answer: Its melting point is 100 to 102 °C.

Question: Which melting point does the source give for `CN(C)C12CN3CN(CN(C3)C1)C2` here?
Answer: The melting point was 110 to 111 °C.

Question: Which melting point does the source give for `CC(=O)NCc1ccc2[nH]cc(C=O)c2c1` here?
Answer: The melting point was 182 to 184 °C.

Question: Which melting point does the source give for `COCn1c(-c2nccs2)cc2cccc(NS(=O)(=O)c3cccs3)c21` here?
Answer: Its melting point is 95 to 97 °C.

Question: Which melting point does the source give for `Cc1cc(O)c(C(C)(C)C)cc1C=O` here?
Answer: The melting point was 168 to 170 °C.

Question: Which melting point does the source give for `CC(=O)N1C(C)(C)CC(OC(=O)CC(c2cc(C(C)(C)C)c(O)cc2C)c2cc(C(C)(C)C)c(O)cc2C)CC1(C)C` here?
Answer: Its melting point is 270 °C.

Question: Which melting point does the source give for `CC(CCCc1ccccc1)n1nnc2c(=O)[nH]c(Cc3ccccc3)nc21` (stereo unspecified) here?
Answer: Its melting point is 112 °C.

Question: Which melting point does the source give for `O=C(c1c(F)cccc1F)N1CS(=O)(=O)CN(c2ccc(Cl)cc2)C1=O` here?
Answer: The melting point was 274 to 275 °C.

Question: With `Cc1cc([N+](=O)[O-])ccc1N=C1SCC2(CCCC2)N1C1CCCC1` as the compound, how does the melting point read?
Answer: The melting point was 118 to 119 °C.

Question: Which melting point does the source give for `CSc1nc(=O)n(C(C)C)c(=O)[nH]1` here?
Answer: Its melting point is 188 to 190 °C.

Question: For `COc1ccc(-c2ccc(C(=O)Nc3ccc4cc(CN5C(C)CCCC5C)ccc4c3)cc2)cc1` (stereo unspecified), which melting point is on record?
Answer: Its melting point is 199 to 200 °C.

Question: With `Cc1cc2c(O)n(CCc3ccc(C(=O)N[C@@H](CCC(=O)O)C(=O)O)cc3)cnc-2n1` as the compound, how does the melting point read?
Answer: The melting point was 291 °C.

Question: For `CCOC(=O)N(c1ccc(C(O)(C(F)(F)F)C(F)(F)F)cc1)S(C)(=O)=O`, which melting point is on record?
Answer: The melting point was 108 to 112 °C.

Question: With `CCCCCCCNC(=O)N(C)c1cccc(-c2ccc(C=C(OC)C(=O)OC)cc2)c1` as the compound, how does the melting point read?
Answer: The melting point was 93 °C.

Question: With `C#CCNc1nc(NCC=C)nc2c(C)csc12` as the compound, how does the melting point read?
Answer: Its melting point is 95 to 96 °C.

Question: Which melting point does the source give for `Cn1cc2snnc2n1` here?
Answer: The melting point was 125 to 127 °C.

Question: For `OCc1cccc(-c2cnc3cnc(-c4ccc(O)cc4)nc3c2)c1`, which melting point is on record?
Answer: Its melting point is 232 °C.

Question: Which melting point does the source give for `Cc1c(F)c(N2CC[C@@H](C(C)(C)N)C2)cc2c1c(=O)c(C(=O)O)cn2-c1ccc(F)cc1F` here?
Answer: Its melting point is 156 to 158 °C.

Question: With `O=C(O)C1=Cc2cc(Cl)c(Cl)cc2SC1C(F)(F)F` (stereo unspecified) as the compound, how does the melting point read?
Answer: The melting point was 262 to 264 °C.

Question: For `COc1c(Cl)cc(F)c(-n2ncc(C(F)(F)F)cc2=O)c1N`, which melting point is on record?
Answer: The melting point was 156 to 157 °C.

Question: With `CC1(C)COC(c2ccc3c(c2)C(=O)c2ccccc2CO3)=N1` as the compound, how does the melting point read?
Answer: The melting point was 122 °C.

Question: Which melting point does the source give for `COc1cc(COc2nn(-c3ccccc3)cc2/C=C/P(=O)(OC(C)C)OC(C)C)ccc1OCc1nc(-c2ccco2)oc1C` here?
Answer: Its melting point is 152 to 153 °C.

Question: For `FC(F)(F)c1ccc(Cl)nn1`, which melting point is on record?
Answer: Its melting point is 51 to 52 °C.

Question: For `CCOC(=O)C(=O)Nc1ccc2cccc([N+](=O)[O-])c2c1NC(=O)C(=O)OCC`, which melting point is on record?
Answer: Its melting point is 173 to 175 °C.

Question: Which melting point does the source give for `O=C(CN1CCN(C(=O)OCc2ccc(C(F)(F)F)cc2)CC1)N1CCC2(CC1)Cn1cc([N+](=O)[O-])nc1O2` here?
Answer: The melting point was 139 to 141 °C.

Question: With `Cc1cccc2c(Nc3ccc(OCCN(CCCl)CCCl)cc3)c3cccc(C(=O)NCCN(C)C)c3nc12` as the compound, how does the melting point read?
Answer: The melting point was 185 to 186 °C.

Question: For `O=C(CCl)NC1CCc2ccccc2C1=O` (stereo unspecified), which melting point is on record?
Answer: Its melting point is 118 to 122 °C.

Question: With `CC=CC(=O)N1CCN(NC(=O)c2ccc(F)cc2)CC1` as the compound, how does the melting point read?
Answer: Its melting point is 191 to 193 °C.

Question: Which melting point does the source give for `CCOC(=O)c1oc(-c2ccc(C)cc2)cc(=O)c1Br` here?
Answer: Its melting point is 144 °C.

Question: For `N#Cc1ccc(C2NCCS2)cc1` (stereo unspecified), which melting point is on record?
Answer: Its melting point is 57 to 58 °C.

Question: For `Oc1ccc(C2=CCCCCCC2)cc1`, which melting point is on record?
Answer: Its melting point is 95 to 97 °C.

Question: For `COc1ccc(-c2cc(=Nc3c(C)cc(C)cc3C)n(C)c(=O)n2C)cc1OC`, which melting point is on record?
Answer: The melting point was 68 to 70 °C.

Question: With `COc1ccc(N)c(CS(=O)(=O)c2ccccc2)c1` as the compound, how does the melting point read?
Answer: Its melting point is 110 to 111 °C.

Question: For `CN(CCO)CCn1nc2c3c(c(NCCNCCO)ccc31)C(=O)c1c(O)ccc(O)c1-2`, which melting point is on record?
Answer: The melting point was 191 to 194 °C.

Question: For `O=C(Nc1ccc(Oc2ccnc(NCCN3CCOCC3)n2)c2ccccc12)c1cc(F)cc(N2CCOCC2)c1`, which melting point is on record?
Answer: The melting point was 112 to 114 °C.

Question: For `O=c1cc(N2CCOCC2)oc2ccc(Cl)cc12`, which melting point is on record?
Answer: The melting point was 194 to 195 °C.

Question: For `CN(C)C(=O)C(=O)C1=CC2(CCCC2)c2ccccc21`, which melting point is on record?
Answer: Its melting point is 119 to 121 °C.

Question: With `COC(=O)c1ccc2c(c1)c1cc(-c3ccc(CN4CCOCC4)cc3)c(=O)n(C)c1n2C` as the compound, how does the melting point read?
Answer: Its melting point is 175 °C.

Question: With `Nc1nc(N)nc(-c2ccc(S(=O)(=O)N3CCCCC3)cc2)n1` as the compound, how does the melting point read?
Answer: Its melting point is greater than 260 °C.

Question: For `CN1CCN(CCCOc2ccc(Nc3ncc4ccc(-c5cccnc5)n4n3)cc2)CC1`, which melting point is on record?
Answer: The melting point was 135 to 139 °C.

Question: Which melting point does the source give for `CON=Cc1cc(Cl)cc(Cl)c1` here?
Answer: The melting point was 53 °C.

Question: With `Cc1ccc(CNc2ccc3c(CNC(=O)c4ccc(F)cc4)cccc3n2)o1` as the compound, how does the melting point read?
Answer: The melting point was 173 °C.

Question: For `CC=CC(=O)Nc1ccc(-c2ccncc2)cc1`, which melting point is on record?
Answer: Its melting point is 247 to 249 °C.

Question: Which melting point does the source give for `CC(C(=O)O)c1ccc2oc(Cc3ccc(Cl)cc3)nc2c1` (stereo unspecified) here?
Answer: The melting point was 135 to 137 °C.

Question: Which melting point does the source give for `O=C(Nc1cc(Cl)c(N2CCOCC2)c(Cl)c1)c1ccc(F)c(OCc2cccnc2)c1` here?
Answer: The melting point was 209 to 211 °C.

Question: Which melting point does the source give for `CCCCc1cc2ccccc2c(Cc2ccc(C(=O)O)cc2)n1` here?
Answer: The melting point was 112 °C.

Question: With `Cc1cc(C)cc(NC(=O)Nc2ccc(-c3c(C(N)=O)[nH]c4ccccc34)cc2)c1` as the compound, how does the melting point read?
Answer: The melting point was 168 to 170 °C.

Question: With `Cc1cccc(C)c1CNc1cc(S(=O)(=O)N(C)C)cc2c1nc(C)n2C` as the compound, how does the melting point read?
Answer: The melting point was 237 to 238 °C.

Question: For `O=C(Nc1nc(Cl)nc(Cl)n1)NS(=O)(=O)c1cccc2cccnc12`, which melting point is on record?
Answer: The melting point was 145 to 147 °C.

Question: With `O=c1[nH]c(=O)n(C2CC(F)C(CO)O2)cc1Cl` (stereo unspecified) as the compound, how does the melting point read?
Answer: Its melting point is 183 to 184 °C.

Question: With `CC(CCC=O)C1CCC2C3CC=C4CC(O)CC(O)C4(C)C3CCC12C` (stereo unspecified) as the compound, how does the melting point read?
Answer: The melting point was 120 to 122 °C.

Question: With `CC(C)CN1C(=O)CCC(c2ccccc2Cl)c2cc(Cl)ccc21` (stereo unspecified) as the compound, how does the melting point read?
Answer: Its melting point is 152 to 154 °C.

Question: With `COc1ccc(Cc2nc(C(C)=O)c[nH]2)cc1` as the compound, how does the melting point read?
Answer: Its melting point is 147 to 148 °C.

Question: For `O=C(O)CCCCC[C@@H]1C[C@@H](NS(=O)(=O)c2ccc(Cl)cc2)CN1S(=O)(=O)c1ccc(Cl)cc1`, which melting point is on record?
Answer: The melting point was 124 to 125 °C.

Question: Which melting point does the source give for `O=C1NCCc2c1c1cccc(OCc3ccccc3)c1n2COCc1ccccc1` here?
Answer: The melting point was 188 to 190 °C.

Question: With `CC(O)(CCCl)c1ccc(-c2ccc(Cl)cc2)cc1` (stereo unspecified) as the compound, how does the melting point read?
Answer: Its melting point is 98 to 100 °C.

Question: Which melting point does the source give for `COc1ccc2cc(O)c(C(C)(C)O)cc2c1` here?
Answer: The melting point was 148 to 150 °C.

Question: Which melting point does the source give for `CN(C)C1CCN(S(=O)(=O)c2cc(C#N)ccc2Oc2cc(F)ccc2F)CC1` here?
Answer: Its melting point is 154 to 157 °C.

Question: Which melting point does the source give for `CN1CCn2c1c(-c1ccccc1)c1ncccc1c2=O` here?
Answer: Its melting point is 237 to 240 °C.

Question: For `COc1ccc(C=CC2=NN(c3ccc([N+](=O)[O-])cc3)C(c3ccc(OC)c(O)c3)C2)cc1O` (stereo unspecified), which melting point is on record?
Answer: Its melting point is 215 to 217 °C.

Question: With `CCCc1c(OCCCOc2ccc(-c3c[nH]c(SCc4ccccc4)n3)c(OC)c2CCC)ccc2c1OC(C(=O)O)CC2` (stereo unspecified) as the compound, how does the melting point read?
Answer: The melting point was 92 to 97 °C.

Question: With `CC(C)CNc1c([N+](=O)[O-])c2nnnn2c2ccccc12` as the compound, how does the melting point read?
Answer: Its melting point is 152 to 154 °C.

Question: Which melting point does the source give for `Oc1cccc2cc(-c3ccc(OCCN4CCCC4)cc3)sc12` here?
Answer: The melting point was 180 to 183 °C.

Question: With `CC1(C)SC2C(NC(=O)CNC(=O)NC(=N)Cc3ccc(Cl)cc3)C(=O)N2C1c1nnn[nH]1` (stereo unspecified) as the compound, how does the melting point read?
Answer: Its melting point is 150 to 162 °C.

Question: Which melting point does the source give for `Cn1c(=O)c(-c2c(Cl)cccc2Cl)cc2cnc(NC3CCCCC3)nc21` here?
Answer: Its melting point is 242 to 244 °C.

Reference: a melting point compilation (Tetko et al.; mined from patent text by program, amines drawn as free bases though some values may be those of a salt)
